From the supplement of paper PMC11061612

What was measured:
Assay in all cases: Bliss excess, mean over the matrix (fraction); higher = more synergy
[1] = test system: COR-L23 (Non-Small Cell Lung Carcinoma)
In short: (§1)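 Cell lines grown in DMEM/F12 or RPMI with 10% FBS were plated in 1536-well plates and held 24 hours at 37°C, 5% CO2 before 72 hours of exposure to two-drug dose matrices, with DMSO typically at 0.2%. CellTiter-Glo 2.0 luminescence gave viability, which was converted to inhibition. Vehicle wells were set to 0 and blank wells to 1. Combination Emax is the second-highest inhibition in the matrix, and Bliss excess is the observed combination effect minus the expected EA + EB − EA·EB, where EA and EB are the single-agent effects.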

[2] = test system: CTV-1 (T-Lymphoblastic Leukemia)
In short: as §1

[3] = test system: DMS-273 (Small Cell Lung Carcinoma)
In short: as §1

[4] = test system: DOV13 (Ovarian Carcinoma)
In short: as §1

DSH1 (Bladder Carcinoma) = test system: DSH1 (Bladder Carcinoma)
In short: as §1

[5] = test system: HCC2157 (Breast Carcinoma)
In short: as §1

[6] = test system: HT-29 (Colorectal Carcinoma)
In short: as §1

[7] = test system: IHH-4 (Thyroid Gland Carcinoma)
In short: as §1

[8] = test system: LS-513 (Colorectal Carcinoma)
In short: as §1

[9] = test system: LU-99A (Non-Small Cell Lung Carcinoma)
In short: as §1

[10] = test system: NCI-H1299 (Non-Small Cell Lung Carcinoma)
In short: as §1

[11] = test system: NCI-H1781 (Lung Adenocarcinoma)
In short: as §1

NCI-H2595 (Mesothelioma) = test system: NCI-H2595 (Mesothelioma)
In short: as §1

RH-1 (Ewing's Sarcoma) = test system: RH-1 (Ewing's Sarcoma)
In short: as §1

SK-N-FI (Neuroblastoma) = test system: SK-N-FI (Neuroblastoma)
In short: as §1

[12] = test system: SUIT-2 (Pancreatic Carcinoma)
In short: as §1

[13] = test system: SW1088 (Low Grade Glioma)
In short: as §1

[14] = test system: SW756 (Cervical Carcinoma)
In short: as §1

[15] = test system: TE-5 (Esophageal Squamous Cell Carcinoma)
In short: as §1

[16] = test system: U-266 (Plasma Cell Myeloma)
In short: as §1

| Structure (SMILES) | Bliss excess [1] | Bliss excess [2] | Bliss excess [3] | Bliss excess [4] | Bliss excess (DSH1 (Bladder Carcinoma)) | Bliss excess [5] | Bliss excess [6] | Bliss excess [7] | Bliss excess [8] | Bliss excess [9] | Bliss excess [10] | Bliss excess [11] | Bliss excess (NCI-H2595 (Mesothelioma)) | Bliss excess (RH-1 (Ewing's Sarcoma)) | Bliss excess (SK-N-FI (Neuroblastoma)) | Bliss excess [12] | Bliss excess [13] | Bliss excess [14] | Bliss excess [15] | Bliss excess [16] |
| --- | --- | --- | --- | --- | --- | --- | --- | --- | --- | --- | --- | --- | --- | --- | --- | --- | --- | --- | --- | --- |
| CC1(C)CCC(CN2CCN(c3ccc(C(=O)NS(=O)(=O)c4ccc(NCC5CCOCC5)c([N+](=O)[O-])c4)c(Oc4cnc5[nH]ccc5c4)c3)CC2)=C(c2ccc(Cl)cc2)C1 [Venetoclax] + Cc1cc2ncnn2cc1Nc1ncc2c(n1)n(C1CCOCC1)c(=O)n2C [AZD7648] (first compound max 1 µM, 7x7, partner max 10 µM) | -0.0351 | -0.0249 | -0.0147 | 0.0659 | -0.027 | 0.0602 | 0.0077 | -0.027 | -0.0294 | -0.0437 | -0.0352 | -0.0274 | -0.0185 | 0.0029 | 0.0047 | -0.0271 | -0.105 | 0.0031 | -0.0382 | 0.0148 |
| CN(CCO)CC[C@H](CSc1ccccc1)Nc1ccc(S(=O)(=O)NC(=O)c2ccc(N3CCC([C@@H](O)c4ccccc4-c4ccc(Cl)cc4)CC3)cc2)cc1S(=O)(=O)C(F)(F)F [AZD4320] + C=CCn1c(=O)c2cnc(Nc3ccc(N4CCN(C)CC4)cc3)nc2n1-c1cccc(C(C)(C)O)n1 [AZD1775] (first compound max 1 µM, partner max 1 µM) | -0.006 | -0.0115 | -0.0229 | 0.0352 | 0.0646 | -0.0386 | 0.0055 | 0.0051 | -0.0134 | 0.0007 | -0.0107 | -0.003 | -0.0113 | 0.0413 | -0.0331 | -0.0088 | 0.0064 | -0.0225 | 0.0773 | 0.1 |
| CN(C)CCCOc1ccc(-c2ccc3ncc4c(c3c2)n(C2CCOCC2)c(=O)n4C)cn1 [AZD0156] + CCN(CCO)CCCOc1ccc2c(Nc3cc(CC(=O)Nc4cccc(F)c4)[nH]n3)ncnc2c1 [AZD2811] (first compound max 1 µM, 7x7, partner max 1 µM) | -0.0073 | 0.0458 | 0.0307 | 0.0385 | 0.0062 | 0.112 | -0.0109 | 0.0153 | -0.0559 | -0.0341 | -0.021 | 0.0374 | -0.0334 | -0.0337 | -0.0144 | -0.0029 | -0.0291 | -0.016 | -0.0536 | 0.0028 |
| CC1(C)CCC(CN2CCN(c3ccc(C(=O)NS(=O)(=O)c4ccc(NCC5CCOCC5)c([N+](=O)[O-])c4)c(Oc4cnc5[nH]ccc5c4)c3)CC2)=C(c2ccc(Cl)cc2)C1 [Venetoclax] + C1CN(CCC1(C(=O)N[C@@H](CCO)C2=CC=C(C=C2)Cl)N)C3=NC=NC4=C3C=CN4 [Capivasertib] (first compound max 1 µM, 7x7, partner max 3 µM) | -0.0525 | -0.0319 | 0.0443 | -0.0028 | -0.0642 | -0.0055 | -0.0325 | -0.0187 | -0.0649 | -0.0702 | -0.0036 | -0.0811 | -0.0465 | -0.0353 | 0.0002 | -0.0663 | -0.0578 | -0.0171 | -0.0197 | -0.071 |
| CC1(C)CCC(CN2CCN(c3ccc(C(=O)NS(=O)(=O)c4ccc(NCC5CCOCC5)c([N+](=O)[O-])c4)c(Oc4cnc5[nH]ccc5c4)c3)CC2)=C(c2ccc(Cl)cc2)C1 [Venetoclax] + CCN(CCO)CCCOc1ccc2c(Nc3cc(CC(=O)Nc4cccc(F)c4)[nH]n3)ncnc2c1 [AZD2811] (first compound max 1 µM, 7x7, partner max 1 µM) | -0.0428 | -0.0281 | 0.0016 | 0.0465 | -0.0142 | -0.0305 | 0.0012 | -0.0288 | -0.0407 | -0.0012 | -0.0358 | 0.0061 | -0.0146 | -0.0548 | -0.0456 | -0.0135 | -0.0469 | -0.0292 | -0.0318 | -0.0216 |
| COc1nnc2ccc(N3CCC(c4ccc(OCCN5CCN(C)C(=O)[C@H]5C)cc4)CC3)nn12 [AZD5153] + C[C@@H]1COCCN1C2=NC(=NC(=C2)C3(CC3)[S@](=N)(=O)C)C4=C5C=CNC5=NC=C4 [AZD6738] (first compound max 1 µM, 7x7, partner max 10 µM) | -0.0016 | 0.0194 | 0.0044 | -0.0623 | 0.0321 | -0.0086 | -0.0307 | -0.0118 | -0.0211 | -0.0213 | -0.0088 | 0.0033 | 0.0346 | 0.0071 | 0.0549 | 0.0468 | 0.0059 | 0.0204 | -0.0316 | -0.079 |
| COc1cccc2c1C(=O)c1c(O)c3c(c(O)c1C2=O)C[C@@](O)(C(=O)CO)C[C@@H]3O[C@H]1C[C@H](N)[C@H](O)[C@H](C)O1 [Doxorubicin] + Cc1cc2ncnn2cc1Nc1ncc2c(n1)n(C1CCOCC1)c(=O)n2C [AZD7648] (first compound max 1 µM, 7x7, partner max 10 µM) | 0.0351 | 0.119 | 0.0727 | 0.0218 | 0.0268 | 0.112 | 0.0099 | 0.109 | 0.057 | 0.0269 | 0.0329 | 0.0578 | 0.0084 | 0.163 | -0.0158 | 0.0432 | 0.0309 | 0.0541 | -0.0229 | 0.115 |
| Cc1c2c(nn1C)CSCc1cc(n(C)n1)CSc1cc(c3ccccc3c1)OCCCc1c(C(=O)O)n(C)c3c-2c(Cl)ccc13 [AZD5991] + CC1(C)CCC(CN2CCN(c3ccc(C(=O)NS(=O)(=O)c4ccc(NCC5CCOCC5)c([N+](=O)[O-])c4)c(Oc4cnc5[nH]ccc5c4)c3)CC2)=C(c2ccc(Cl)cc2)C1 [Venetoclax] (first compound max 1 µM, 7x7, partner max 1 µM) | -0.0178 | -0.0011 | -0.0099 | 0.0007 | 0.0397 | 0.0305 | -0.0015 | 0.0037 | -0.0523 | -0.0555 | -0.031 | -0.0597 | -0.0384 | 0.0491 | 0.034 | -0.0287 | -0.0187 | -0.0331 | 0.037 | 0.0759 |
| CCc1c2c(nc3ccc(O)cc13)-c1cc3c(c(=O)n1C2)COC(=O)[C@]3(O)CC [SN-38] + CN(C)CCCOc1ccc(-c2ccc3ncc4c(c3c2)n(C2CCOCC2)c(=O)n4C)cn1 [AZD0156] (first compound max 0.3 µM, 7x7, partner max 1 µM) | 0.014 | 0.0414 | 0.0377 | -0.0192 | -0.0382 | 0.142 | 0.0693 | 0.0457 | -0.0878 | 0.0406 | 0.0495 | 0.0554 | -0.0399 | 0.0845 | 0.0628 | 0.0446 | 0.0324 | -0.0273 | 0.0124 | -0.0099 |
| COc1nnc2ccc(N3CCC(c4ccc(OCCN5CCN(C)C(=O)[C@H]5C)cc4)CC3)nn12 [AZD5153] + Cn1cnc2c(F)c(Nc3ccc(Br)cc3Cl)c(C(=O)NOCCO)cc21 [Selumetinib] (first compound max 1 µM, 7x7, partner max 10 µM) | -0.0516 | 0.0009 | -0.0661 | -0.0263 | -0.0458 | -0.0038 | -0.0281 | 0.0085 | -0.0213 | -0.0118 | -0.0243 | -0.0085 | -0.0604 | -0.0267 | -0.0386 | 0.0227 | 0.029 | 0.0167 | 0.0184 | 0.0347 |
| CC1(C)CCC(CN2CCN(c3ccc(C(=O)NS(=O)(=O)c4ccc(NCC5CCOCC5)c([N+](=O)[O-])c4)c(Oc4cnc5[nH]ccc5c4)c3)CC2)=C(c2ccc(Cl)cc2)C1 [Venetoclax] + Cn1cnc2c(F)c(Nc3ccc(Br)cc3Cl)c(C(=O)NOCCO)cc21 [Selumetinib] (first compound max 1 µM, 7x7, partner max 3 µM) | -0.0182 | -0.0173 | -0.0184 | -0.0151 | 0.0225 | -0.006 | -0.0261 | -0.0176 | -0.0159 | -0.0484 | -0.0424 | -0.0437 | -0.047 | -0.0291 | 0.0374 | -0.0942 | -0.0407 | -0.0537 | -0.0575 | 0.0137 |
| CN(C)CCCOc1ccc(-c2ccc3ncc4c(c3c2)n(C2CCOCC2)c(=O)n4C)cn1 [AZD0156] + C=CCn1c(=O)c2cnc(Nc3ccc(N4CCN(C)CC4)cc3)nc2n1-c1cccc(C(C)(C)O)n1 [AZD1775] (first compound max 1 µM, partner max 1 µM) | 0.0047 | -0.0169 | -0.0142 | -0.0523 | 0.0236 | -0.0233 | -0.0411 | 0.0247 | -0.0448 | -0.0422 | -0.0179 | -0.0014 | -0.062 | 0.0329 | -0.0308 | 0.0011 | -0.0738 | -0.0386 | -0.0388 | 0.0168 |
| Cc1cc2ncnn2cc1Nc1ncc2c(n1)n(C1CCOCC1)c(=O)n2C [AZD7648] + C=CCn1c(=O)c2cnc(Nc3ccc(N4CCN(C)CC4)cc3)nc2n1-c1cccc(C(C)(C)O)n1 [AZD1775] (first compound max 10 µM, partner max 1 µM) | -0.0588 | 0.0096 | -0.0349 | -0.0795 | 0.0281 | -0.0133 | -0.0091 | 0.0233 | -0.023 | -0.0262 | -0.0314 | -0.0222 | -0.0242 | 0.016 | -0.0415 | -0.0403 | -0.0479 | -0.0211 | -0.0386 | -0.0457 |
| COc1cccc(OCCCN)c1-c1cc(Nc2cnc(C#N)cn2)n[nH]1 [Prexasertib] + C=CCn1c(=O)c2cnc(Nc3ccc(N4CCN(C)CC4)cc3)nc2n1-c1cccc(C(C)(C)O)n1 [AZD1775] (first compound max 1 µM, partner max 1 µM) | 0.047 | 0.0364 | 0.0795 | 0.0963 | 0.112 | 0.0668 | -0.0247 | 0.136 | 0.0763 | 0.0196 | -0.0148 | 0.0258 | 0.0383 | 0.0653 | 0.0466 | 0.036 | -0.0156 | 0.0163 | -0.0245 | -0.0454 |
